Laboratory results reported in the NIST ThermoML archive (doi:10.1021/je034087q).

Assay: xn = mol fraction of the nth substance listed

CC(C)=O [acetone] + O=C=O
Details | mass density [kg/m3]
326.65 K, 9200 kPa, Fluid (supercritical or subcritical phases), x2 = 0.933 | 535
326.65 K, 9240 kPa, Fluid (supercritical or subcritical phases), x2 = 0.933 | 540
326.65 K, 9270 kPa, Fluid (supercritical or subcritical phases), x2 = 0.933 | 544
326.65 K, 9310 kPa, Fluid (supercritical or subcritical phases), x2 = 0.933 | 549
326.65 K, 9340 kPa, Fluid (supercritical or subcritical phases), x2 = 0.933 | 553
326.65 K, 9370 kPa, Fluid (supercritical or subcritical phases), x2 = 0.933 | 559
326.65 K, 9410 kPa, Fluid (supercritical or subcritical phases), x2 = 0.933 | 563
326.65 K, 9460 kPa, Fluid (supercritical or subcritical phases), x2 = 0.933 | 569
326.65 K, 9500 kPa, Fluid (supercritical or subcritical phases), x2 = 0.933 | 574
326.65 K, 9550 kPa, Fluid (supercritical or subcritical phases), x2 = 0.933 | 579
326.65 K, 9600 kPa, Fluid (supercritical or subcritical phases), x2 = 0.933 | 584
326.65 K, 9660 kPa, Fluid (supercritical or subcritical phases), x2 = 0.933 | 590
326.65 K, 9710 kPa, Fluid (supercritical or subcritical phases), x2 = 0.933 | 594
326.65 K, 9790 kPa, Fluid (supercritical or subcritical phases), x2 = 0.933 | 601
326.65 K, 9850 kPa, Fluid (supercritical or subcritical phases), x2 = 0.933 | 606
326.65 K, 9930 kPa, Fluid (supercritical or subcritical phases), x2 = 0.933 | 612
326.65 K, 10010 kPa, Fluid (supercritical or subcritical phases), x2 = 0.933 | 617
326.65 K, 10110 kPa, Fluid (supercritical or subcritical phases), x2 = 0.933 | 625
326.65 K, 10210 kPa, Fluid (supercritical or subcritical phases), x2 = 0.933 | 630
326.65 K, 10340 kPa, Fluid (supercritical or subcritical phases), x2 = 0.933 | 637
326.65 K, 10470 kPa, Fluid (supercritical or subcritical phases), x2 = 0.933 | 643
326.65 K, 10590 kPa, Fluid (supercritical or subcritical phases), x2 = 0.933 | 650
326.65 K, 10750 kPa, Fluid (supercritical or subcritical phases), x2 = 0.933 | 656
326.65 K, 10920 kPa, Fluid (supercritical or subcritical phases), x2 = 0.933 | 663
326.65 K, 11100 kPa, Fluid (supercritical or subcritical phases), x2 = 0.933 | 670
326.65 K, 11320 kPa, Fluid (supercritical or subcritical phases), x2 = 0.933 | 677
326.65 K, 11540 kPa, Fluid (supercritical or subcritical phases), x2 = 0.933 | 684
326.65 K, 11800 kPa, Fluid (supercritical or subcritical phases), x2 = 0.933 | 691
326.65 K, 12060 kPa, Fluid (supercritical or subcritical phases), x2 = 0.933 | 699
326.65 K, 12380 kPa, Fluid (supercritical or subcritical phases), x2 = 0.933 | 708
326.65 K, 12730 kPa, Fluid (supercritical or subcritical phases), x2 = 0.933 | 715
326.65 K, 13140 kPa, Fluid (supercritical or subcritical phases), x2 = 0.933 | 723
326.65 K, 13580 kPa, Fluid (supercritical or subcritical phases), x2 = 0.933 | 731
326.65 K, 14060 kPa, Fluid (supercritical or subcritical phases), x2 = 0.933 | 741
326.65 K, 14600 kPa, Fluid (supercritical or subcritical phases), x2 = 0.933 | 749
328.15 K, 9370 kPa, Fluid (supercritical or subcritical phases), x2 = 0.902 | 632
328.15 K, 9490 kPa, Fluid (supercritical or subcritical phases), x2 = 0.902 | 640
328.15 K, 9620 kPa, Fluid (supercritical or subcritical phases), x2 = 0.902 | 645
328.15 K, 9720 kPa, Fluid (supercritical or subcritical phases), x2 = 0.902 | 650
328.15 K, 9780 kPa, Fluid (supercritical or subcritical phases), x2 = 0.902 | 654
328.15 K, 9910 kPa, Fluid (supercritical or subcritical phases), x2 = 0.902 | 657
328.15 K, 10020 kPa, Fluid (supercritical or subcritical phases), x2 = 0.902 | 662
328.15 K, 10150 kPa, Fluid (supercritical or subcritical phases), x2 = 0.902 | 669
328.15 K, 10330 kPa, Fluid (supercritical or subcritical phases), x2 = 0.902 | 673
328.15 K, 10480 kPa, Fluid (supercritical or subcritical phases), x2 = 0.902 | 679
328.15 K, 10610 kPa, Fluid (supercritical or subcritical phases), x2 = 0.902 | 684
328.15 K, 10820 kPa, Fluid (supercritical or subcritical phases), x2 = 0.902 | 688
328.15 K, 11020 kPa, Fluid (supercritical or subcritical phases), x2 = 0.902 | 695
328.15 K, 11200 kPa, Fluid (supercritical or subcritical phases), x2 = 0.902 | 700
328.15 K, 11440 kPa, Fluid (supercritical or subcritical phases), x2 = 0.902 | 705
328.15 K, 11720 kPa, Fluid (supercritical or subcritical phases), x2 = 0.902 | 711
328.15 K, 11920 kPa, Fluid (supercritical or subcritical phases), x2 = 0.902 | 716
328.15 K, 12230 kPa, Fluid (supercritical or subcritical phases), x2 = 0.902 | 721
328.15 K, 12460 kPa, Fluid (supercritical or subcritical phases), x2 = 0.902 | 727
328.15 K, 12780 kPa, Fluid (supercritical or subcritical phases), x2 = 0.902 | 733
328.15 K, 12970 kPa, Fluid (supercritical or subcritical phases), x2 = 0.902 | 737
328.15 K, 13310 kPa, Fluid (supercritical or subcritical phases), x2 = 0.902 | 739
328.15 K, 13640 kPa, Fluid (supercritical or subcritical phases), x2 = 0.902 | 748
328.15 K, 13900 kPa, Fluid (supercritical or subcritical phases), x2 = 0.902 | 748
328.15 K, 14180 kPa, Fluid (supercritical or subcritical phases), x2 = 0.902 | 754
328.15 K, 14600 kPa, Fluid (supercritical or subcritical phases), x2 = 0.902 | 758
328.15 K, 14820 kPa, Fluid (supercritical or subcritical phases), x2 = 0.902 | 761
328.15 K, Liquid, Other PVT measurement, x2 = 0.902 | 626
333.15 K, 9750 kPa, Fluid (supercritical or subcritical phases), x2 = 0.902 | 573
333.15 K, 9830 kPa, Fluid (supercritical or subcritical phases), x2 = 0.902 | 579
333.15 K, 9880 kPa, Fluid (supercritical or subcritical phases), x2 = 0.902 | 582
333.15 K, 9920 kPa, Fluid (supercritical or subcritical phases), x2 = 0.902 | 585
333.15 K, 9990 kPa, Fluid (supercritical or subcritical phases), x2 = 0.902 | 590
333.15 K, 10050 kPa, Fluid (supercritical or subcritical phases), x2 = 0.902 | 594
333.15 K, 10100 kPa, Fluid (supercritical or subcritical phases), x2 = 0.902 | 599
333.15 K, 10180 kPa, Fluid (supercritical or subcritical phases), x2 = 0.902 | 603
333.15 K, 10250 kPa, Fluid (supercritical or subcritical phases), x2 = 0.902 | 607
333.15 K, 10320 kPa, Fluid (supercritical or subcritical phases), x2 = 0.902 | 610
333.15 K, 10380 kPa, Fluid (supercritical or subcritical phases), x2 = 0.902 | 614
333.15 K, 10500 kPa, Fluid (supercritical or subcritical phases), x2 = 0.902 | 619
333.15 K, 10610 kPa, Fluid (supercritical or subcritical phases), x2 = 0.902 | 626
333.15 K, 10750 kPa, Fluid (supercritical or subcritical phases), x2 = 0.902 | 631
333.15 K, 10850 kPa, Fluid (supercritical or subcritical phases), x2 = 0.902 | 636
333.15 K, 10920 kPa, Fluid (supercritical or subcritical phases), x2 = 0.902 | 641
333.15 K, 11080 kPa, Fluid (supercritical or subcritical phases), x2 = 0.902 | 646
333.15 K, 11170 kPa, Fluid (supercritical or subcritical phases), x2 = 0.902 | 650
333.15 K, 11280 kPa, Fluid (supercritical or subcritical phases), x2 = 0.902 | 654
333.15 K, 11490 kPa, Fluid (supercritical or subcritical phases), x2 = 0.902 | 660
333.15 K, 11690 kPa, Fluid (supercritical or subcritical phases), x2 = 0.902 | 666
333.15 K, 11820 kPa, Fluid (supercritical or subcritical phases), x2 = 0.902 | 671
333.15 K, 12000 kPa, Fluid (supercritical or subcritical phases), x2 = 0.902 | 676
333.15 K, 12230 kPa, Fluid (supercritical or subcritical phases), x2 = 0.902 | 682
333.15 K, 12390 kPa, Fluid (supercritical or subcritical phases), x2 = 0.902 | 687
333.15 K, 12560 kPa, Fluid (supercritical or subcritical phases), x2 = 0.902 | 690
333.15 K, 12840 kPa, Fluid (supercritical or subcritical phases), x2 = 0.902 | 697
333.15 K, 13010 kPa, Fluid (supercritical or subcritical phases), x2 = 0.902 | 700
333.15 K, 13280 kPa, Fluid (supercritical or subcritical phases), x2 = 0.902 | 705
333.15 K, 13630 kPa, Fluid (supercritical or subcritical phases), x2 = 0.902 | 711
333.15 K, 13800 kPa, Fluid (supercritical or subcritical phases), x2 = 0.902 | 716
333.15 K, 13980 kPa, Fluid (supercritical or subcritical phases), x2 = 0.902 | 719
333.15 K, 14280 kPa, Fluid (supercritical or subcritical phases), x2 = 0.902 | 723
333.15 K, 14460 kPa, Fluid (supercritical or subcritical phases), x2 = 0.902 | 726
333.15 K, 14830 kPa, Fluid (supercritical or subcritical phases), x2 = 0.902 | 733
333.15 K, Liquid, Other PVT measurement, x2 = 0.902 | 570
335.15 K, 9800 kPa, Fluid (supercritical or subcritical phases), x2 = 0.909 | 532
335.15 K, 9820 kPa, Fluid (supercritical or subcritical phases), x2 = 0.909 | 535
335.15 K, 9860 kPa, Fluid (supercritical or subcritical phases), x2 = 0.909 | 539
335.15 K, 9900 kPa, Fluid (supercritical or subcritical phases), x2 = 0.909 | 543
335.15 K, 9940 kPa, Fluid (supercritical or subcritical phases), x2 = 0.909 | 548
335.15 K, 10000 kPa, Fluid (supercritical or subcritical phases), x2 = 0.909 | 551
335.15 K, 10050 kPa, Fluid (supercritical or subcritical phases), x2 = 0.909 | 558
335.15 K, 10100 kPa, Fluid (supercritical or subcritical phases), x2 = 0.909 | 562
335.15 K, 10160 kPa, Fluid (supercritical or subcritical phases), x2 = 0.909 | 567
335.15 K, 10220 kPa, Fluid (supercritical or subcritical phases), x2 = 0.909 | 572
335.15 K, 10280 kPa, Fluid (supercritical or subcritical phases), x2 = 0.909 | 578
